Where two headings read alike, the source gives them in different places.
Experiments:
MCF-7 = experiment: MTT cell viability assay, MCF-7; format: cell-based; settings: for EC50: Table 2; for IC50: read-out: IC50/μM MCF-7
Microsomal stability = format: in vitro ADME
Solubility = format: physicochemical
[1] = Tolerability in mice based on weight; format: in vivo; settings: daily i.p. 5 mg/kg/day, male CD1 mice
Method: Analogs were delivered daily to male CD1 mice by i.p. at 5 mg/kg/day. Five mice per group. Error bars represent SEM.

[2] = system: Hsp70 clients in MCF7 cells; experiment: Western blot of Hsp70 clients in MCF7 cells; format: cell-based; settings: 24 hrs
Method: Cells were treated for 24 hrs with compound, lysed and Western blots performed.

MEF (C57BL/6) = experiment: MTT cell viability assay, MEF (C57BL/6); format: cell-based; settings: for IC50 / EC50: Mus musculus; for EC50: Table 2; for SI MEF/MCF-7: ratio of EC50 MEF to EC50 MCF-7
IMR-90 = experiment: Cell viability, IMR-90; format: cell-based; settings: for EC50: Homo sapiens, IMR-90, Table 2; for SI IMR-90/MCF-7: ratio of EC50 IMR-90 to EC50 MCF-7
Method: Cells were then treated with compound at various concentrations in 0.2 mL media. After the 72-hour incubation period, cells were washed in PBS (3×100 μL), and 10 μL MTT reagent was added with 100 μL fresh media. Cells were then incubated for 4 hr in a humidified chamber at 37° C. with 5% CO2. Insoluble formazan crystals were solubilized by addition of 0.1 mL detergent solution (4 hr at room temp., dark). Resulting colored solutions were then quantified at an absorbance of 570 nm.

[3] = Pharmacokinetics in CD1 mice, single i.p. injection, plasma by HPLC; format: in vivo
Method: A single injection of compound was delivered to CD1 mice by i.p. and the plasma collected at the indicated times. Compound levels were calculated by HPLC, using a standard curve.

MDA-MB-231 = experiment: MTT cell viability assay, MDA-MB-231; format: cell-based; settings: Homo sapiens, MDA-MB-231, 72-hour incubation
Xenografts of MCF7 cells = experiment: Hsp70 client destabilization in MCF7 xenografts, western blot; format: in vivo; settings: 5 mg/kg/day for three days, western blot of tumors
Method: Xenografts of MCF7 cells were treated by delivery of compound in saline 5 mg/kg/day dosed for three days, after which tumors were harvested for western blot. Results from three separate animals are shown.

[4] = system: multiple myeloma cell lines; experiment: MTT cell viability in multiple myeloma cell lines; format: cell-based; settings: cell viability after 48 hrs, percentage of solvent control (1% DMSO)
Text: Results are shown as a percentage of a solvent control (1% DMSO). Results are the average of experiments performed in triplicate. Error bars represent SEM.

[5] = 72 h, read-out: IC50/μM MEF (C57BL/6), MTT, 72-hour incubation
[6] = Homo sapiens, MCF7, MTT, 72-hour incubation
[7] = MTT, 72-hour incubation, read-out: IC50/μM MEF (C57BL/6)

SMILES | solubility (Solubility) | IC50 (MCF-7; [6]) | Microsomal min (Microsomal stability) | tolerated in mice, based on weight [1] | EC50 (MCF-7; Homo sapiens, MCF7) | EC50 (MEF (C57BL/6)) | EC50 (IMR-90) | IC50 (MDA-MB-231) | IC50 (MEF (C57BL/6); [7]) | SI MEF/MCF-7 (MEF (C57BL/6)) | SI IMR-90/MCF-7 (IMR-90) | other results
CCn1c(=O)/c(=C2\Sc3cc(Cl)ccc3N2C)s/c1=C\c1scc[n+]1Cc1ccccc1.[Cl-] [JG-98, reference compound] | 31 µM |  | 37 min |  |  |  |  |  |  |  |  | EC50 (MCF-7): 0.71 ± 0.22 µM
CCn1c(=O)/c(=C2\Sc3cc(Cl)ccc3N2C)s/c1=C\c1scc[n+]1Cc1ccc(Br)s1.[Cl-] [JG-231, reference compound] | 16 µM |  | >60 min | tolerated in mice |  |  |  |  |  |  |  | EC50 (MCF-7): 0.12 ± 0.01 µM; destabilization of Hsp70 clients (c-Raf and other clients) [2]: destabilize c-Raf and other clients
CCn1c(=O)/c(=C2\Sc3cc(Br)ccc3N2C)s/c1=C\c1scc[n+]1Cc1ccc(C(F)(F)F)o1.[Cl-] [JG-294] |  |  | >60 min | tolerated in mice | 0.1 ± 0.01 µM | 3.5 ± 0.4 µM | 9.8 ± 2 µM | 0.18 ± 0.01 µM |  |  |  | IC50 (MCF-7; Homo sapiens, MCF7, 72 h): 0.1 ± 0.01 µM; IC50 (MEF (C57BL/6); [5]): 3.5 ± 0.4 µM; AUC0-∞/nM × h [3]: 2.429 µM·h; Tmax ([3]; mouse, ip): 2 h; half-life ([3]; mouse, ip, read-out: t1/2/h (converted)): 29.8 h
CCc1ccc2c(c1)S/C(=c1/s/c(=C\c3scc[n+]3Cc3ccc(C(F)(F)F)o3)n(CC)c1=O)N2C.[Cl-] [JG-300] |  |  | 37 min |  | 0.11 ± 0.01 µM | 1.4 ± 0.1 µM | 3.3 ± 0.3 µM | 0.1 ± 0.01 µM |  |  |  | IC50 (MCF-7; Homo sapiens, MCF7, 72 h, MTT, 72-hour incubation): 0.11 ± 0.01 µM; IC50 (MEF (C57BL/6); [5]): 1.4 ± 0.06 µM
CCc1ccc2c(c1)S/C(=c1/s/c(=C\c3scc[n+]3Cc3ccccc3C(=O)OC)n(CC)c1=O)N2C.[Cl-] [JG-345] |  |  | 25 min | tolerated in mice | 0.049 ± 0.003 µM | 1 ± 0.1 µM | 3.2 ± 0.7 µM | 0.046 ± 0.006 µM | 1 ± 0.1 µM |  |  | IC50 (MCF-7; Homo sapiens, MCF7, 72 h): 0.049 ± 0.003 µM; t1/2/h [3]: 11.4 h; destabilization of Hsp70 clients in vivo (Xenografts of MCF7 cells): destabilized Hsp70 clients in vivo; destabilization of Hsp70 clients (c-Raf and other clients) [2]: destabilize c-Raf and other clients; anti-proliferative activity against multiple myeloma cell lines [4]: anti-proliferative activity

Now from value to compound, other results behind:

solubility (Solubility) | IC50 (MCF-7; [6]) | SMILES | Microsomal min (Microsomal stability) | tolerated in mice, based on weight [1] | EC50 (MCF-7; Homo sapiens, MCF7) | EC50 (MEF (C57BL/6)) | EC50 (IMR-90) | IC50 (MDA-MB-231) | IC50 (MEF (C57BL/6); [7]) | SI MEF/MCF-7 (MEF (C57BL/6)) | SI IMR-90/MCF-7 (IMR-90) | other results
16 µM | 0.098 ± 0.009 µM | CCn1c(=O)/c(=C2\Sc3cc(SC)ccc3N2C)s/c1=C\c1scc[n+]1Cc1ccccc1OC(F)(F)F.[Cl-] [JG-311] | 22 min |  | 0.098 ± 0.009 µM | 2 ± 0.1 µM | 3.5 ± 0.6 µM | 0.14 ± 0.01 µM | 2 ± 0.1 µM | 20 | 35 | 
16 µM | 0.1 ± 0.01 µM | CCn1c(=O)/c(=C2\Sc3cc(SC)ccc3N2C)s/c1=C\c1scc[n+]1Cc1ccccc1C(F)(F)F.[Cl-] [JG-312] | 23 min |  | 0.1 ± 0.01 µM | 3.2 ± 0.2 µM | > 10 µM | 0.14 ± 0.01 µM | 3.2 ± 0.2 µM | 32 | >100 | 
16 µM | 0.089 ± 0.006 µM | CCn1c(=O)/c(=C2\Sc3cc(SC)ccc3N2C)s/c1=C\c1scc[n+]1Cc1ccccc1SC(F)(F)F.[Cl-] [JG-356] | 23 min |  | 0.089 ± 0.006 µM | 1.9 ± 0.1 µM | 1.5 ± 0.1 µM | 0.09 ± 0.005 µM | 1.9 ± 0.1 µM | 21 | 16 | 

Reference: US10221171B2, “Oxathiazole thiazolium Hsp 70 inhibitors” (THE REGENTS OF THE UNIVERSITY OF CALIFORNIA, priority 2015, dated 2019)
